Patent US8664406B2, “Fluorescent probe compounds, preparation method and use thereof” (Dalian University of Technology, priority 2009, dated 2014)

How the values were obtained:
[1] = probe 5 μM, ethanol/water=1/1 v/v; for fluorescence and UV-Vis absorption enhancement induced by Hg^2+: Hg^2+ 15 equivalence; for selectivity to Hg^2+: metal ions 50 equivalence (Hg^2+ 15 equivalence), without the interference from Na^+, K^+, Ca^2+, Mg^2+, Cu^2+ and so on
Procedure: The synthesized compound RHg1 was adopted to test the selectivity to Hg^2+. RHg1 (5 μM) was added into ethanol aqueous solution (ethanol/water=1/1, v/v) containing metal ion (50 equivalence, except that Hg^2+ is 15 equivalence), and then the fluorescence spectrum was tested with excitation wavelength of 510 nm and emission wavelength of 580 nm, the result is shown in FIG. 1.
The synthesized compound RHg2 was adopted to test the selectivity to Hg^2+. RHg2 (5 μM) was added into ethanol aqueous solution (ethanol/water=1/1, v/v) containing metal ion (50 equivalence, except that Hg^2+ is 15 equivalence), and then the fluorescence spectrum was tested, the result is shown in FIG. 10.
The synthesized compound RHg3 was adopted to test the selectivity to Hg^2+. RHg3 (5 μM) was added into ethanol aqueous solution (ethanol/water=1/1, v/v) containing metal ion (50 equivalence, except that Hg^2+ is 15 equivalence), and then the fluorescence spectrum was tested, the result is shown in FIG. 11.
The synthesized compound RHg4 was adopted to test the selectivity to Hg^2+. RHg4 (5 μM) was added into ethanol aqueous solution (ethanol/water=1/1, v/v) containing metal ion (50 equivalence, except that Hg^2+ is 15 equivalence), and then the fluorescence spectrum was tested, the result is shown in FIG. 12.
The synthesized compound RHg5 was adopted to test the selectivity to Hg^2+. RHg5 (5 μM) was added into ethanol aqueous solution (ethanol/water=1/1, v/v) containing metal ion (50 equivalence, except that Hg^2+ is 15 equivalence), and then the fluorescence spectrum was tested, the result is shown in FIG. 13.
The synthesized compound RHg6 was adopted to test the selectivity to Hg^2+. RHg6 (5 μM) was added into ethanol aqueous solution (ethanol/water=1/1, v/v) containing metal ion (50 equivalence, except that Hg^2+ is 15 equivalence), and then the fluorescence spectrum was tested, the result is shown in FIG. 14.
The synthesized compound RHg7 was adopted to test the selectivity to Hg^2+. RHg7 (5 μM) was added into ethanol aqueous solution (ethanol/water=1/1, v/v) containing metal ion (50 equivalence, except that Hg^2+ is 15 equivalence), and then the fluorescence spectrum was tested, the result is shown in FIG. 15.
The synthesized compound RHg8 was adopted to test the selectivity to Hg^2+. RHg8 (5 μM) was added into ethanol aqueous solution (ethanol/water=1/1, v/v) containing metal ion (50 equivalence, except that Hg^2+ is 15 equivalence), and then the fluorescence spectrum was tested, the result is shown in FIG. 16.
The synthesized compound RHg9 was adopted to test the selectivity to Hg^2+. RHg9 (5 μM) was added into ethanol aqueous solution (ethanol/water=1/1, v/v) containing metal ion (50 equivalence, except that Hg^2+ is 15 equivalence), and then the fluorescence spectrum was tested, the result is shown in FIG. 17.
The synthesized compound RHg10 was adopted to test the selectivity to Hg^2+. RHg10 (5 μM) was added into ethanol aqueous solution (ethanol/water=1/1, v/v) containing metal ion (50 equivalence, except that Hg^2+ is 15 equivalence), and then the fluorescence spectrum was tested, the result is shown in FIG. 18.

[2] = pH range 4.9 to 7.7, aqueous solution, ionic strength 0.1
Procedure: The pHs of RHg1 aqueous solution and RHg1/Hg^2+ aqueous solution (ionic strength of 0.1, respectively) were adjusted to about 4.9, after measurement of fluorescence signal, a base solution was added slowly to adjust pH to 7.7, and the corresponding fluorescence signal change was measure, the results is shown in FIG. 3. […] The instrument is fluorospectrophotometer, model: LS 55.

Hela cells = details: 37° C., 30 min, RHg1 10 μM
Procedure: In order to investigate the ability of probe to track Hg^2+ in living cells, the following experiment is carried out. A neutral buffer containing the probe is added into cells, and then cells are incubated for 0.5 h in an incubator of 37° C. containing 5% CO2. The obtained cells are fully washed with the buffer or the culture medium and then imaged with fluorescent microscope to give a blank image. On the other hand, Hg(NO3)2 solution (final concentration is made to 10 μM) is added into the culture containing cells and the probe, and then cells are incubated for 0.5 h in an incubator of 37° C. containing 5% CO2. The obtained cells are washed with the culture medium and then imaged with fluorescent microscope to give an image showing intracellular distribution of Hg^2+, by which the information about the presence of Hg^2+ and regional distribution of Hg^2+ in cells is obtained.
The instrument is Nikon eclipase TE 2000-5.

[3] = RHg1 3 μM, L-cysteine 10 μM, Hg^2+ 1 μM
Procedure: The fluorescence of RHg1 (3 μM) was tested first, then the fluorescence of RHg1 after addition of L-cysteine (10 μM) or Hg^2+ (1 μM) was tested, and finally the fluorescence of the mixed solution containing RHg1, L-cysteine and Hg^2+ was tested. […] The instrument is Nikon eclipase TE 2000-5.

[4] = RHg1 1 μM, sea water, Hg^2+ 1 to 5 ppb
Procedure: The application of the fluorescence probe of the present invention in sea water is described below. Namely, the probe is dissolved in an organic solvent or an organic solvent/water to form a probe solution. Some amount of the probe solution is added into the sea water sample containing Hg^2+ and the mixture is reacted for 10 to 30 min, and then fluorescence is detected.
The instrument is fluorospectrophotometer, model: LS 55.

Row | SMILES | fluorescence and UV-Vis absorption enhancement induced by Hg^2+ [1] | selectivity to Hg^2+ [1] | other results
1 | CCN(CC)c1cc2c(cc1C)C1(c3ccc(N)cc3O2)c2ccccc2C(=O)N1/N=C/C=N/c1ccc(Nc2ccccc2)cc1 (stereo not shown) [RHg10] | large fluorescence and UV-Vis absorption enhancement | good selectivity | –
2 | CCN(CC)c1ccc2c(c1)Oc1cc(N)ccc1C21c2ccccc2C(=O)N1/N=C/C=N/c1ccc(OCCOCCO)cc1 (stereo not shown) [RHg20] | large fluorescence and UV-Vis absorption enhancement | good selectivity | –
3 | Cc1c(/N=C/C=N/N2C(=O)c3ccccc3C23c2ccc(N)cc2Oc2cc(N)ccc23)cccc1C(F)(F)F [RHg25] | large fluorescence and UV-Vis absorption enhancement | good selectivity | –
4 | CCN(CC)c1ccc2c(c1)Oc1cc(N)ccc1C21c2ccccc2C(=O)N1/N=C/C=N/c1ccc(Br)cc1 (stereo not shown) [RHg18] | large fluorescence and UV-Vis absorption enhancement | good selectivity | –
5 | CCN(CC)c1ccc2c(c1)Oc1cc(N(CC)CC)ccc1C21c2ccccc2C(=O)N1/N=C/C=N/c1ccccc1 [RHg3] | large fluorescence and UV-Vis absorption enhancement | good selectivity | –
6 | CCN(CC)c1cc2c(cc1C)C1(c3ccc(N)cc3O2)c2ccccc2C(=O)N1/N=C/C=N/c1ccc(NC(C)=O)cc1 (stereo not shown) [RHg9] | large fluorescence and UV-Vis absorption enhancement | good selectivity | –
7 | CCN(CC)c1ccc2c(c1)Oc1cc(N(CC)CC)ccc1C21c2ccccc2C(=O)N1/N=C/C=N/c1ccccc1C [RHg2] | large fluorescence and UV-Vis absorption enhancement | good selectivity | –
8 | CCNc1cc2c(cc1C)C1(c3cc(C)c(NCC)cc3O2)c2ccccc2C(=O)N1/N=C/C=N/c1ccc(C(=O)O)cc1 [RHg15] | large fluorescence and UV-Vis absorption enhancement | good selectivity | –
9 | CCN(CC)c1cc2c(cc1C)C1(c3ccc(N)cc3O2)c2ccccc2C(=O)N1/N=C/C=N/c1ccccc1 (stereo not shown) [RHg7] | large fluorescence and UV-Vis absorption enhancement | good selectivity | –
10 | CCNc1cc2c(cc1C)C1(c3cc(C)c(NCC)cc3O2)c2ccccc2C(=O)N1/N=C/C=N/c1ccc(OC)cc1 [RHg13] | large fluorescence and UV-Vis absorption enhancement | good selectivity | –
11 | CCNc1cc2c(cc1C)C1(c3cc(C)c(NCC)cc3O2)c2ccccc2C(=O)N1/N=C/C=N/c1ccc(CCl)cc1 [RHg14] | large fluorescence and UV-Vis absorption enhancement | good selectivity | –
12 | Nc1ccc2c(c1)Oc1cc(N)ccc1C21c2ccccc2C(=O)N1/N=C/C=N/c1ccc(Nc2ccccc2)cc1 [RHg24] | large fluorescence and UV-Vis absorption enhancement | good selectivity | –
13 | Nc1ccc2c(c1)Oc1cc(N)ccc1C21c2ccccc2C(=O)N1/N=C/C=N/c1ccc(C(=O)O)cc1 [RHg23] | large fluorescence and UV-Vis absorption enhancement | good selectivity | –
14 | CCN(CC)c1cc2c(cc1C)C1(c3ccc(N)cc3O2)c2ccccc2C(=O)N1/N=C/C=N/c1ccc(C(C)=O)cc1 (stereo not shown) [RHg11] | large fluorescence and UV-Vis absorption enhancement | good selectivity | –
15 | Nc1ccc2c(c1)Oc1cc(N)ccc1C21c2ccccc2C(=O)N1/N=C/C=N/c1ccc(OCCOCCO)cc1 [RHg22] | large fluorescence and UV-Vis absorption enhancement | good selectivity | –
16 | CCN(CC)c1ccc2c(c1)Oc1cc(N(CC)CC)ccc1C21c2ccccc2C(=O)N1/N=C/C=N/c1ccccc1O [RHg1] | large fluorescence and UV-Vis absorption enhancement | good selectivity | effect of pH change on fluorescence emission [2]: nearly not effected; fluorescence in living Hela cells without Hg^2+ (Hela cells): very weak; fluorescence in living Hela cells with Hg^2+ added (Hela cells; Hg^2+ 10 μM): very strong; effect of L-cysteine on Hg^2+ detection [3]: little effects; relationship between fluorescence intensity and Hg^2+ concentration [4]: good linear relationship
17 | CCNc1cc2c(cc1C)C1(c3cc(C)c(NCC)cc3O2)c2ccccc2C(=O)N1/N=C/C=N/c1ccc(Nc2ccccc2)cc1 [RHg17] | large fluorescence and UV-Vis absorption enhancement | good selectivity | –
18 | CCN(CC)c1cc2c(cc1C)C1(c3ccc(N)cc3O2)c2ccccc2C(=O)N1/N=C/C=N/c1ccc(C#N)cc1 (stereo not shown) [RHg8] | large fluorescence and UV-Vis absorption enhancement | good selectivity | –
19 | CCN(CC)c1ccc2c(c1)Oc1cc(N)ccc1C21c2ccccc2C(=O)N1/N=C/C=N/c1ccc(OC)cc1 (stereo not shown) [RHg19] | large fluorescence and UV-Vis absorption enhancement | good selectivity | –
